Measured values taken from patent US9005575B2, “Arg-Gly-Asp-conjugated alpha-melanocyte stimulating hormone hybrid peptide for use in diagnosing and treating melanoma, including metastatic melanoma and methods related to same” (STC.UNM, priority 2009, dated 2015).
Read-outs that look alike come from different tables or passages of the source. Positions of bridges follow the written chain, without caps; N, C: chain ends. Non-standard residues stand in square brackets, D forms with d. Residues, ends and D or L forms follow the SMILES beside them.

Test: Biodistribution in B16/F1 melanoma-bearing C57 mice
Format: in vivo
Settings: female, C57, mouse, iv, total radioactivity; for tissue uptake at 0.5 h / tissue to tissue ratio at 0.5 h: 0.5 h post-injection; for tissue uptake at 2 h / tissue to tissue ratio at 2 h: 2 h post-injection; for tissue uptake at 4 h / tissue to tissue ratio at 4 h: 4 h post-injection; for tissue uptake at 24 h / tissue to tissue ratio at 24 h: 24 h post-injection
Method: All the animal studies were conducted in compliance with Institutional Animal Care and Use Committee approval. The pharmacokinetics of ^99mTc-RGD-Lys-(Arg^11)CCMSH was determined in B16/F1 melanoma-bearing C57 female mice (Harlan, Indianapolis, Ind.). C57 mice were subcutaneously inoculated on the right flank with 1×10^6 B16/F1 cells. The weight of tumors reached approximately 0.2 g 10 days post cell inoculation. Each melanoma-bearing mouse was injected with 0.037 MBq of ^99mTc-RGD-Lys-(Arg^11)CCMSH via the tail vein. Groups of 5 mice were sacrificed at 0.5, 2, 4 and 24 h post-injection, and tumors and organs of interest were harvested, weighed and counted. Blood values were taken as 6.5% of the whole-body weight. The MC1 receptor specificity of the tumor uptake was determined at 2 h post-injection by co-injecting ^99mTc-RGD-Lys-(Arg^11)CCMSH with 10 μg (6.1 nmol) of unlabeled NDP-MSH, a linear α-MSH peptide analogue with picomolar affinity for the MC1 receptors present on murine melanoma cells. The co-injection of 3.5 μg (6.1 nmol) of RGD peptide was performed to determine the αvβ3 integrin specificity of the tumor uptake 2 h post-injection. Statistical analysis was performed using the Student's t-test for unpaired data.
All the animal studies were conducted in compliance with Institutional Animal Care and Use Committee approval. The pharmacokinetics of ^99mTc-RGD-Arg-(Arg^11)CCMSH was determined in B16/F1 melanoma-bearing C57 female mice (Harlan, Indianapolis, Ind.). C57 mice were subcutaneously inoculated on the right flank with 1×10^6 B16/F1 cells. The weight of tumors reached approximately 0.2 g 10 days post cell inoculation. Each melanoma-bearing mouse was injected with 0.037 MBq of ^99mTc-RGD-Arg-(Arg^11)CCMSH via the tail vein. Groups of 5 mice were sacrificed at 0.5, 2, 4 and 24 h post-injection, and tumors and organs of interest were harvested, weighed and counted. Blood values were taken as 6.5% of the whole-body weight. The MC1 receptor specificity of the tumor uptake was determined at 2 h post-injection by co-injecting ^99mTc-RGD-Arg-(Arg^11)CCMSH with 10 μg (6.1 nmol) of unlabeled NDP-MSH. The co-injection of 3.5 μg (6.1 nmol) of RGD peptide was performed to determine the αvβ3 integrin specificity of the tumor uptake at 2 h post-injection.

[1] = pancreas, 0.037 MBq, read-out: Pancreas, Percentage Injected Dose/gram
[2] = skin, 0.037 MBq, read-out: Skin, Percentage Injected Dose/gram
[3] = spleen, 0.037 MBq, read-out: Spleen, Percentage Injected Dose/gram
[4] = stomach, 0.037 MBq, read-out: Stomach, Percentage Injected Dose/gram
[5] = tumor, 0.037 MBq, read-out: Tumor, Percentage Injected Dose/gram
[6] = tumor/blood, 0.037 MBq, read-out: Uptake Ratio Tumor/Blood
[7] = tumor/kidneys, 0.037 MBq, read-out: Uptake Ratio Tumor/Kidneys
[8] = tumor/liver, 0.037 MBq, read-out: Uptake Ratio Tumor/Liver
[9] = tumor/lung, 0.037 MBq, read-out: Uptake Ratio Tumor/Lung
[10] = tumor/muscle, 0.037 MBq, read-out: Uptake Ratio Tumor/Muscle

tissue uptake (normal organs except kidneys, 0.037 MBq, after 2 h post-injection, read-out: Normal organ uptakes except for the kidneys): < 3.2 %ID/g
tissue uptake at 0.5 h [1]: 1.48 ± 1.24 %ID/g
tissue uptake at 2 h [1]: 0.72 ± 0.53 %ID/g
tissue uptake at 4 h [1]: 0.52 ± 0.41 %ID/g
tissue uptake at 24 h [1]: 0.25 ± 0.06 %ID/g
tissue uptake at 2 h (pancreas, NDP blockade (10 μg NDP-MSH co-injected), read-out: Pancreas, Percentage Injected Dose/gram): 0.44 ± 0.37 %ID/g
tissue uptake at 2 h (pancreas, RGD blockade (3.5 μg RGD co-injected), read-out: Pancreas, Percentage Injected Dose/gram): 0.35 ± 0.19 %ID/g
tissue uptake at 0.5 h [2]: 4.53 ± 0.88 %ID/g
tissue uptake at 2 h [2]: 1.52 ± 0.66 %ID/g
tissue uptake at 4 h [2]: 1.17 ± 0.61 %ID/g
tissue uptake at 24 h [2]: 0.78 ± 0.19 %ID/g
tissue uptake at 2 h (skin, NDP blockade (10 μg NDP-MSH co-injected), read-out: Skin, Percentage Injected Dose/gram): 1.14 ± 0.38 %ID/g
tissue uptake at 2 h (skin, RGD blockade (3.5 μg RGD co-injected), read-out: Skin, Percentage Injected Dose/gram): 0.81 ± 0.13 %ID/g
tissue uptake at 0.5 h [3]: 2.18 ± 0.88 %ID/g
tissue uptake at 2 h [3]: 1.23 ± 0.62 %ID/g
tissue uptake at 4 h [3]: 1.14 ± 0.16 %ID/g
tissue uptake at 24 h [3]: 0.88 ± 0.3 %ID/g
tissue uptake at 2 h (spleen, NDP blockade (10 μg NDP-MSH co-injected), read-out: Spleen, Percentage Injected Dose/gram): 0.75 ± 0.37 %ID/g
tissue uptake at 2 h (spleen, RGD blockade (3.5 μg RGD co-injected), read-out: Spleen, Percentage Injected Dose/gram): 0.94 ± 0.3 %ID/g
tissue uptake at 0.5 h [4]: 7.61 ± 1.98 %ID/g
tissue uptake at 2 h [4]: 2.57 ± 0.38 %ID/g
tissue uptake at 4 h [4]: 2.46 ± 1.39 %ID/g
tissue uptake at 24 h [4]: 0.91 ± 0.67 %ID/g
tissue uptake at 2 h (stomach, NDP blockade (10 μg NDP-MSH co-injected), read-out: Stomach, Percentage Injected Dose/gram): 2.43 ± 0.8 %ID/g
tissue uptake at 2 h (stomach, RGD blockade (3.5 μg RGD co-injected), read-out: Stomach, Percentage Injected Dose/gram): 2.64 ± 0.1 %ID/g
tissue uptake at 0.5 h [5]: 11.1 ± 1.41 %ID/g
tissue uptake at 2 h [5]: 14.8 ± 2.94 %ID/g
tissue uptake at 4 h [5]: 12.6 ± 2.53 %ID/g
tissue uptake at 24 h [5]: 7.59 ± 2.04 %ID/g
tissue uptake at 2 h (tumor, NDP blockade (10 μg NDP-MSH co-injected), read-out: Tumor, Percentage Injected Dose/gram): 1.81 ± 0.64 %ID/g
tissue uptake at 2 h (tumor, RGD blockade (3.5 μg RGD co-injected), read-out: Tumor, Percentage Injected Dose/gram): 10.5 ± 1.18 %ID/g
tissue to tissue ratio at 0.5 h [6]: 3.48
tissue to tissue ratio at 2 h [6]: 15.4
tissue to tissue ratio at 4 h [6]: 25.1
tissue to tissue ratio at 24 h [6]: 69
tissue to tissue ratio at 2 h (tumor/blood, NDP blockade (10 μg NDP-MSH co-injected), read-out: Uptake Ratio Tumor/Blood): 5.66
tissue to tissue ratio at 2 h (tumor/blood, RGD blockade (3.5 μg RGD co-injected), read-out: Uptake Ratio Tumor/Blood): 19.8
tissue to tissue ratio at 0.5 h [7]: 0.16
tissue to tissue ratio at 2 h [7]: 0.22
tissue to tissue ratio at 4 h [7]: 0.18
tissue to tissue ratio at 24 h [7]: 0.19
tissue to tissue ratio at 2 h (tumor/kidneys, NDP blockade (10 μg NDP-MSH co-injected), read-out: Uptake Ratio Tumor/Kidneys): 0.03
tissue to tissue ratio at 2 h (tumor/kidneys, RGD blockade (3.5 μg RGD co-injected), read-out: Uptake Ratio Tumor/Kidneys): 0.19
tissue to tissue ratio at 0.5 h [8]: 2.75
tissue to tissue ratio at 2 h [8]: 4.68
tissue to tissue ratio at 4 h [8]: 4.32
tissue to tissue ratio at 24 h [8]: 4.39
tissue to tissue ratio at 2 h (tumor/liver, NDP blockade (10 μg NDP-MSH co-injected), read-out: Uptake Ratio Tumor/Liver): 0.63
tissue to tissue ratio at 2 h (tumor/liver, RGD blockade (3.5 μg RGD co-injected), read-out: Uptake Ratio Tumor/Liver): 4.63
tissue to tissue ratio at 0.5 h [9]: 2.08
tissue to tissue ratio at 2 h [9]: 11.8
tissue to tissue ratio at 4 h [9]: 11.8
tissue to tissue ratio at 24 h [9]: 8.07
tissue to tissue ratio at 2 h (tumor/lung, NDP blockade (10 μg NDP-MSH co-injected), read-out: Uptake Ratio Tumor/Lung): 1.38
tissue to tissue ratio at 2 h (tumor/lung, RGD blockade (3.5 μg RGD co-injected), read-out: Uptake Ratio Tumor/Lung): 9.38
tissue to tissue ratio at 0.5 h [10]: 29.1
tissue to tissue ratio at 2 h [10]: 43.6
tissue to tissue ratio at 4 h [10]: 96.7
tissue to tissue ratio at 24 h [10]: 33
tissue to tissue ratio at 2 h (tumor/muscle, NDP blockade (10 μg NDP-MSH co-injected), read-out: Uptake Ratio Tumor/Muscle): 8.62
tissue to tissue ratio at 2 h (tumor/muscle, RGD blockade (3.5 μg RGD co-injected), read-out: Uptake Ratio Tumor/Muscle): 70
SMILES: CC(C)[C@H](NC(=O)[C@@H]1CCCN1C(=O)[C@H](CCCNC(=N)N)NC(=O)[C@H](CS)NC(=O)[C@H](Cc1c[nH]c2ccccc12)NC(=O)[C@H](CCCNC(=N)N)NC(=O)[C@@H](Cc1ccccc1)NC(=O)[C@H](Cc1c[nH]cn1)NC(=O)[C@H](CCC(=O)O)NC(=O)[C@H](CS)NC(=O)[C@H](CS)NC(=O)[C@H](CCCCN)NC(=O)[C@@H]1CC(=O)N[C@@H](CCCNC(=N)N)C(=O)NCC(=O)N[C@@H](CC(=O)O)C(=O)N[C@H](Cc2ccc(O)cc2)C(=O)N1)C(N)=O [^99mTc-RGD-Lys-(Arg^11)CCMSH, metal not drawn] (RGD[dY]DKCCEH[dF]RWCRPV-NH2; lactam N-5)
